{"source": "patent US20250090437A1", "about": "“COSMETIC COMPOUNDING AGENT, COSMETIC AND PRODUCTION METHOD THEREOF” (MIYOSHI OIL & FAT CO., LTD., priority 2019, published 2025)", "key": {"[1]": {"assay": "Stability of ascorbic acid-based compound (coloration)", "assay_type": "physicochemical", "design": "key to Appearance (Visual evaluation) Immediately after preparatiom / Appearance (Visual evaluation) After 7 days 50° C. / Appearance (Visual evaluation) After 7 days Room temperature: ⊚: Colorless and transparent; ∘: Light yellow; Δ: Yellow; x: Brown to black", "details": "33 wt % aqueous solution", "procedure": "With regard to a 33 wt/% aqueous solution of each of the compounds C46, C49 and C98 to C100 and water, a stability in an aqueous solution condition was visually evaluated. An evaluation method was such that there was prepared a 33 wt % aqueous solution of each of the compounds C46, C49 and C98 to C100, the aqueous solution was then left to stand still at room temperature or in a thermostatic bath of 50° C. for seven days; coloration before and after the still standing was visually confirmed. The evaluation criteria were as follows. • ⊚: Colorless and transparent • ∘: Light yellow • Δ: Yellow • x: Brown to black"}, "[2]": {"assay": "Permeability to skin (horny layer tape stripping method)", "assay_type": "in vivo", "details": "extraction liquid, an hour after application to the arm, HPLC", "procedure": "Skin permeability was evaluated by a horny layer tape stripping method. […] A sample was applied to the arm and then left thereon for an hour before performing tape stripping on the horn by eight layers. An adhered substance on this tape was then extracted with an ion-exchange water over the course of 10 min, followed by filtrating an extraction liquid thus obtained with a 0.2 μm filter, and then quantifying, via HPLC, the amount of each of the compounds C20, C64 and C97 in each extraction liquid filtrated."}, "[3]": {"assay": "Sensory evaluation on healthy hair after using shampoo agent containing organic ammonium salt", "design": "species or system human", "details": "shampoo agent containing 3.0% by mass of the compound; treated 10 times", "procedure": "(§1) Next, the mixture was cooled to a temperature of 30° C. or lower, and a purified water of an evaporated amount was then added thereto so that the whole hair treatment composition would be 100% by mass, followed by uniformly mixing them so as to obtain a hair treatment composition(s). The pH level of the hair treatment composition was adjusted to pH 6.0 by adding a citric acid or sodium hydroxide.\nAbout 5 g of the healthy hair was taken and dipped into 350 ml of a seven-time dilute aqueous solution of each of the abovementioned hair treatment compositions (shampoo agents) at 35 to 40° C. so as to be washed. The healthy hair was then subjected to a rinsing treatment five times using 500 ml of a warm water of 35 to 40° C., followed by drying the same at 80° C., and then performing air drying at 25° C. Such series of treatment involving hair washing, rinsing and drying was repeated 10 times to then evaluate a cohesiveness of the hair, a moist feeling of the hair, a gloss of the hair, a surface smoothness of the hair and a non-stickiness on the surface of the hair, after performing air drying."}, "[4]": {"assay": "Water retention property and adherability with respect to healthy hair", "design": "species or system human", "procedure": "In the following evaluations, a human black hair produced by Beaulax Co., Ltd was used as a healthy hair. A damaged hair was prepared by repeatedly having the healthy hair permed and bleached three times.\nAn 80 wt % aqueous solution of each of the compounds B1 to B26 (content in terms of anhydride in the cases of the compounds B1 to B23) was prepared, followed by using a Karl Fischer moisture meter (KF-200 by Mitsubishi Chemical Analytech Co., Ltd.) to confirm that a moisture rate was 20.0 wt %. As a healthy hair, there was used a chemically untreated healthy hair (human black hair by Beaulax Co., Ltd). The moisture rate (pre-test moisture rate A) of the hair was measured by an infrared moisture meter (by Kett Electric Laboratory).\nAfter immersion, the hair was taken out, and KimWipes were then used to wipe off the compound until a change in weight was no longer observed, followed by measuring the weight of the hair (post-test hair weight B). The hair from which the compound had been wiped off was then placed into a thermo-hygrostat set to 40° C. and 35 to 40% RH. A moisture rate after 24 hours (post-test moisture rate B) was then measured, followed by calculating a rate of reduction in moisture with the following formula. Likewise, instead of the 80 wt % aqueous solution, evaluation was also performed in a similar manner using only an ion-exchange water (comparative example B4).\nFurther, an adhesion rate of the compound adhering to the hair was calculated with the following formula. […]"}, "[5]": {"assay": "Surface resistance measurement of organic ammonium salt", "details": "0.7 g applied to polyurethane artificial leather; dried, coating in solid state"}, "[6]": {"assay": "Sensory evaluation on damaged hair after using shampoo agent containing organic ammonium salt", "design": "species or system human", "details": "shampoo agent containing the compound; treated 10 times", "procedure": "as §1\nThe damaged hair was repeatedly treated 10 times in a similar manner as 3-1; evaluated were a cohesiveness of the hair, surface smoothness of the hair and waviness of the hair after performing air drying."}, "[7]": {"assay": "Sensory evaluation on healthy hair after using conditioner containing organic ammonium salt", "design": "species or system human", "details": "conditioner containing 3.0% by mass of the compound", "procedure": "Here, 4.5% by mass of a stearyl alcohol (KALCOL 8688 by Kao Corporation), 2.0% by mass of a behenyl alcohol (KALCOL 220-80 by Kao Corporation) and 0.5% by mass of a phenoxyethanol (Hisolve EPH by TOHO Chemical Industry Co., Ltd.) were mixed together and heated to 75° C. to obtain a liquid A. Further, 3.0% by mass of a behentrimonium chloride (CATINAL DC-80 by TOHO Chemical Industry Co., Ltd.), 5.0% by mass of dipropylene glycol and 3.0% by mass of each of the compounds B11, B23, B26, B27 and B28 (content in terms of anhydride in the cases of the compounds B11 and B23) were added together, followed by adding a purified water thereto, and then melting them at 80° C., thus obtaining a liquid B. The liquid B was then gradually added to the liquid A, and stirring was performed at 75° C. for 20 min. Next, the mixture was cooled to a temperature of 40° C. or lower, and a purified water of an evaporated amount was then added thereto so that the whole hair treatment composition would be 100% by mass, followed by uniformly mixing them so as to obtain a hair treatment composition(s).\nAbout 5 g of the healthy hair was dipped into and kept immersed in 150 g of a seven-time dilute aqueous solution of each of the abovementioned hair treatment compositions (conditioners) at 40° C. for 30 min. […] After air drying, a combing capability, cohesiveness and non-stickiness of the hair were evaluated."}, "[8]": {"assay": "Sensory evaluation on damaged hair after using organic ammonium salt", "design": "species or system human", "details": "compared to the compounds of the comparative examples", "procedure": "Here, an 80 wt % aqueous solution(s) of each of the compounds B11, B12, B23, B26 and B27 (content in terms of anhydride in the cases of the compounds B11, B12 and B23) were prepared and used as samples. Next, one minute was spent in evenly applying 10.0 g of each sample to a bundle of the damaged hairs weighing about 10 g, using a brush; the bundle of the damaged hairs was then left for 5 min. After leaving it for 5 min, the bundle of the damaged hairs was rinsed with a hot water of 40° C. for 30 sec, and evaluated was a finger-combing capability at the time of performing washing. The hair bundle that had been rinsed was then dried with a towel and further subjected to air drying for a day, followed by evaluating items such as elasticity/resilience (feeling by bare hands), cohesiveness, surface smoothness and non-waviness, from the perspective of superiority or inferiority to a test hair bundle(s) uncoated with the sample."}, "[9]": {"assay": "Sensory evaluation on healthy hair after using organic ammonium salt", "design": "species or system human", "details": "compared to the compounds of the comparative examples", "procedure": "Here, an 80 wt % aqueous solution(s) of each of the compounds B11, B12, B23, B26 and B27 (content in terms of anhydride in the cases of the compounds B11, B12 and B23) were prepared and used as samples. Next, one minute was spent in evenly applying 10.0 g of each sample to a bundle of the healthy hairs weighing about 10 g, using a brush; the bundle of the healthy hairs was then left for 5 min. After leaving it for 5 min, the bundle of the healthy hairs was rinsed with a hot water of 40° C. for 30 sec, and evaluated was a finger-combing capability at the time of performing washing. The hair bundle that had been rinsed was then dried with a towel and further subjected to air drying for a day, followed by evaluating items such as flexibility, finger-combing capability, texture, elasticity/resilience (feeling by bare hands), volume increase (visual evaluation), cohesiveness, moist feeling, surface smoothness, non-stickiness (feeling by bare hands) and gloss (visual evaluation), from the perspective of superiority or inferiority to a test hair bundle(s) uncoated with the sample."}, "[10]": {"assay": "Water confinement property test (barrier property)", "assay_type": "physicochemical", "details": "sample on filter paper over vial of water; 40° C., 25% RH, 24 hours", "procedure": "Next, 20.0 g of an ion-exchange water was put into a 40 mL pierce vial bottle (by AS ONE Corporation.), followed by removing an inner lid (rubber plug) of the pierce vial bottle, placing on the pierce vial bottle the filter paper to which each sample had been applied, and then plugging the bottle with an outer lid.\nFurther, Wm1, Wm2, Sm1 and Sm2 in the formula below respectively represent the following numerical values.\nWm1: Weight of ion-exchange water in vial before storage (using filter paper to which only ion-exchange water had been applied)\nWm2: Weight of ion-exchange water in vial after 24 hours (using filter paper to which only ion-exchange water had been applied)\nSm1: Weight of ion-exchange water in vial before storage (using filter paper to which sample had been applied)\nSm2: Weight of ion-exchange water in vial after 24 hours (using filter paper to which sample had been applied)"}}, "data": [{"smiles": "O=C1O[C@H]([C@@H](O)CO)C([O-])=C1OP(=O)([O-])[O-].[Na+].[Na+].[Na+]", "note": "[Compound C100, sodium ascorbyl phosphate]", "values": [{"measurement": "Appearance (Visual evaluation) After 7 days 50° C.", "setting": "[1]", "value": "Δ~x"}, {"measurement": "Appearance (Visual evaluation) After 7 days Room temperature", "setting": "[1]", "value": "○~Δ"}, {"measurement": "Appearance (Visual evaluation) Immediately after preparatiom", "setting": "[1]", "value": "⊚"}]}, {"smiles": "CC(O)C(=O)[O-].[K+]", "note": "(centres unmarked) [Compound C97, potassium lactate]", "values": [{"measurement": "Compound concentration", "setting": "[2]; Tape stripping layer 1", "value": 0.020, "unit": "ml/L"}, {"measurement": "Compound concentration", "setting": "[2]; Tape stripping layer 2", "value": 0.017, "unit": "ml/L"}, {"measurement": "Compound concentration", "setting": "[2]; Tape stripping layer 3", "value": 0.016, "unit": "ml/L"}, {"measurement": "Compound concentration", "setting": "[2]; Tape stripping layer 4", "value": 0.009, "unit": "ml/L"}, {"measurement": "Compound concentration", "setting": "[2]; Tape stripping layer 5", "value": 0.008, "unit": "ml/L"}, {"measurement": "Compound concentration", "setting": "[2]; Tape stripping layer 6", "value": 0.006, "unit": "ml/L"}, {"measurement": "Compound concentration", "setting": "[2]; Tape stripping layer 7", "value": 0.006, "unit": "ml/L"}, {"measurement": "Compound concentration", "setting": "[2]; Tape stripping layer 8", "value": 0.006, "unit": "ml/L"}]}, {"smiles": "CC(N)(CO)CO.O=C1O[C@H]([C@@H](O)CO)C(O)=C1O", "note": "[Compound B7]", "values": [{"measurement": "Sensory evaluation of healthy hair after shampoo agent (cohesiveness, moist feeling, gloss, smoothness, non-stickiness)", "setting": "[3]", "value": "favorable"}, {"measurement": "Compound adhesion rate", "setting": "[4]; healthy hair immersed 60 min in 80 wt % aqueous solution", "value": 2.4, "unit": "%"}, {"measurement": "Post-test moisture rate", "setting": "[4]; healthy hair immersed 60 min in 80 wt % aqueous solution, after 24 hours at 40° C., 35 to 40% RH, pre-test 7.6%", "value": 6.0, "unit": "%"}, {"measurement": "Rate of reduction in moisture", "setting": "[4]; healthy hair, 80 wt % aqueous solution, 24 hours at 40° C., 35 to 40% RH", "value": 21, "unit": "%"}]}, {"smiles": "CC(O)C(=O)[O-].[Na+]", "note": "(centres unmarked) [Compound B28, sodium lactate]", "values": [{"measurement": "Surface resistance value", "setting": "[5]", "value": "2×10^8 Ω"}, {"measurement": "Sensory evaluation of healthy hair after shampoo agent (cohesiveness, moist feeling, gloss, smoothness, non-stickiness)", "setting": "[3]", "value": "inferior in general"}, {"measurement": "Sensory evaluation of damaged hair after shampoo agent (cohesiveness, surface smoothness, waviness)", "setting": "[6]", "value": "inferior surface smoothness"}, {"measurement": "Combing capability, cohesiveness and non-stickiness of healthy hair after conditioner", "setting": "[7]", "value": "poor hair cohesiveness"}]}, {"smiles": "O=C1O[C@H]([C@@H](O)CO)C(O)=C1O[C@H]1O[C@H](CO)[C@@H](O)[C@H](O)[C@H]1O", "note": "[Compound C99, ascorbic acid glucoside]", "values": [{"measurement": "Appearance (Visual evaluation) After 7 days 50° C.", "setting": "[1]", "value": "Δ~x"}, {"measurement": "Appearance (Visual evaluation) After 7 days Room temperature", "setting": "[1]", "value": "○"}, {"measurement": "Appearance (Visual evaluation) Immediately after preparatiom", "setting": "[1]", "value": "⊚"}]}, {"smiles": "O=C1O[C@H]([C@@H](O)CO)C(O)=C1O", "note": "[Compound C98, ascorbic acid]", "values": [{"measurement": "Appearance (Visual evaluation) After 7 days 50° C.", "setting": "[1]", "value": "x"}, {"measurement": "Appearance (Visual evaluation) After 7 days Room temperature", "setting": "[1]", "value": "x"}, {"measurement": "Appearance (Visual evaluation) Immediately after preparatiom", "setting": "[1]", "value": "⊚"}]}, {"smiles": "CCCCC/C=C\\C/C=C\\CCCCCCCC(=O)OCC(N)(CO)CO", "note": "[Compound B31, 2-amino-2-hydroxymethyl-1,3-propanediol linoleate]", "values": [{"measurement": "Sensory evaluation on damaged hair (elasticity/resilience, cohesiveness, surface smoothness, suppression of waviness)", "setting": "[8]", "value": "superior"}, {"measurement": "Adherability to the healthy hair", "setting": "[4]; compared to the compounds of comparative examples B1 to B8", "value": "higher adherability"}, {"measurement": "Sensory evaluation on healthy hair (flexibility, finger-combing, texture, elasticity/resilience, volume, cohesiveness, moist feeling, smoothness, non-stickiness, gloss)", "setting": "[9]", "value": "superior"}, {"measurement": "Water evaporation inhibition rate", "setting": "[10]", "value": 48.1, "unit": "%"}]}]}
